Laboratory results from patent US8143315B2, “Salts of the active substance rasagiline” (priority 2006, dated 2012).
Where a name gives a salt, the structure may show the parent alone. Read-outs that look alike come from different tables or passages of the source.

Legend:
[1] = Particle size distribution by laser diffraction; conditions: for d(0.1) ± SD / d(0.5) ± SD / d(0.9) ± SD: average of three measurement cycles, dispersant low-viscosity paraffin
[2] = Determination of solubility; conditions: for pH of the saturated solution / solubility: one-hour storage at 37° C.; for solubility in words: general description; for solubility: HPLC
[3] = Determination of hygroscopicity (storage in humidity chambers); format: physicochemical; conditions: storage below 93% humidity, room temperature
[4] = for appearance: 60° C., closed glass bottle; for appearance / agglomerates of the salt as produced: immediately after production (general description); for formation of agglomerates after long storage: above all dry storage (general description); for agglomerates after storage: storage in a closed glass bottle (general description, time not stated)
[5] = for appearance / total content of chemical contaminations / water content: 40° C./75% relative humidity, open glass bottle; for appearance after storage under humid conditions: 40° C., 75% relative humidity in an open glass bottle (general description, time not stated)
[6] = tablets, 60° C. closed glass bottle
[7] = Direct compression without mannitol, 4 weeks
[8] = Direct compression without mannitol, initial value
[9] = Granulation 1 with mannitol (55%), 4 weeks
[10] = Granulation 1 with mannitol (55%), initial value
[11] = Granulation 2 without mannitol, 4 weeks
[12] = Granulation 2 without mannitol, initial value
[13] = Granulation 1 with mannitol (55%)

Compound	fraction ≦ 250 μm [1] [%]	d(0.1) ± SD [1] [μm]	d(0.5) ± SD [1] [μm]	d(0.9) ± SD [1] [μm]	pH of the saturated solution ([2]; 0.1 N HCl)	pH of the saturated solution ([2]; Demineralized water)	pH of the saturated solution ([2]; USP acetate buffer, pH 4.5)	water absorption (hygroscopicity) [3]	appearance ([4]; 4 weeks)	appearance ([4]; 8 weeks)	appearance ([4]; 12 weeks)	portion of decomposed active substance [6, 7] [%]	portion of decomposed active substance [6, 8] [%]	portion of decomposed active substance [6, 9] [%]	portion of decomposed active substance [6, 10] [%]	portion of decomposed active substance [6, 11] [%]	portion of decomposed active substance [6, 12] [%]	solubility in citric acid solution [13]	solubility in citric acid solution (Granulation 2 without mannitol)	appearance / agglomerates of the salt as produced [4]	also measured
C#CCN[C@@H]1CCc2ccccc21.C#CCN[C@@H]1CCc2ccccc21.O=S(=O)(O)CCS(=O)(=O)O [Rasagiline edisilate, Rasagiline Edisilate]	100.0	2.7 ± 0.01	12.8 ± 0.08	35.1 ± 0.36	1.0	4.4	4.4	no water absorption	unchanged	unchanged	unchanged	0.40	0.00	1.4	0.00	0.79	0.00	very high	very high	white crystal powder which is free of agglomerates	pH of the saturated solution ([2]; USP phosphate buffer, pH 6.8): 6.2; solubility in words [2]: dissolves very rapidly and well; formation of agglomerates after long storage [4]: does not form any agglomerates; appearance ([5]; 4 weeks): unchanged; appearance ([5]; 8 weeks): unchanged; appearance ([5]; 12 weeks): unchanged
C#CCN[C@@H]1CCc2ccccc21 [Rasagiline hydrochloride]																					portion of decomposed active substance ([6]; Direct compression without mannitol, 4 weeks, hydrochloride): 1.5%; portion of decomposed active substance ([6]; Granulation 1 with mannitol (55%), 4 weeks, hydrochloride): 2.4%; portion of decomposed active substance ([6]; Granulation 2 without mannitol, 4 weeks, hydrochloride): 1.9%
C#CCN[C@@H]1CCc2ccccc21 [Rasagiline mesylate, rasagiline mesylate]	100.0	13.6 ± 0.05	40.5 ± 0.25	85.7 ± 0.89				absorbed large amounts of water and liquefied				0.46	0.00	2.6	0.00	1.3	0.00	very high	very high		agglomerates after storage [4]: agglomerates; appearance after storage under humid conditions [5]: sticky powder which is difficult to process
rasagiline tartrate	97.2	5.0 ± 0.04	40.9 ± 0.57	161.2 ± 1.34					unchanged	unchanged	unchanged	2.5	0.00	3.1	0.00	2.8	0.00			undesired agglomerates	appearance ([5]; 4 weeks): unchanged; appearance ([5]; 8 weeks): unchanged; appearance ([5]; 12 weeks): unchanged

Further lines, with some results ahead:

fraction ≦ 250 μm [1] [%]	d(0.1) ± SD [1] [μm]	d(0.5) ± SD [1] [μm]	d(0.9) ± SD [1] [μm]	pH of the saturated solution ([2]; 0.1 N HCl)	pH of the saturated solution ([2]; Demineralized water)	pH of the saturated solution ([2]; USP acetate buffer, pH 4.5)	water absorption (hygroscopicity) [3]	appearance ([4]; 4 weeks)	appearance ([4]; 8 weeks)	appearance ([4]; 12 weeks)	portion of decomposed active substance [6, 7] [%]	portion of decomposed active substance [6, 8] [%]	portion of decomposed active substance [6, 9] [%]	portion of decomposed active substance [6, 10] [%]	portion of decomposed active substance [6, 11] [%]	portion of decomposed active substance [6, 12] [%]	solubility in citric acid solution [13]	solubility in citric acid solution (Granulation 2 without mannitol)	Compound	appearance / agglomerates of the salt as produced [4]	also measured
98.1	19.9 ± 0.02	53.0 ± 0.09	120.5 ± 0.66	1.2	2.7	3.4	no water absorption	unchanged	unchanged	unchanged									Rasagiline Oxalate	white crystal powder which is free of agglomerates	solubility ([2]; 0.1 N HCl): 29.9 mg/mL; solubility ([2]; Demineralized water): 19.7 mg/mL; solubility ([2]; USP acetate buffer, pH 4.5): 24.3 mg/mL; pH of the saturated solution ([2]; USP phosphate buffer, pH 6.8): 3.4; solubility ([2]; USP phosphate buffer, pH 6.8): 24.2 mg/mL; solubility in words [2]: much more difficult to dissolve; formation of agglomerates after long storage [4]: does not form any agglomerates
											2.9	0.00	3.0	0.00	2.5	0.00	high	high	rasagiline phosphate		agglomerates after storage [4]: agglomerates; appearance after storage under humid conditions [5]: sticky powder which is difficult to process; total content of chemical contaminations ([5]; 4 weeks): 0.05%; water content ([5]; 4 weeks): 0.2%; total content of chemical contaminations ([5]; 8 weeks): 0.19%; water content ([5]; 8 weeks): 0.4%; total content of chemical contaminations ([5]; t0): 0.0%; water content ([5]; t0): 0.1%
